Data on 2 compounds can be found in US4072689A, “Monoamino 2,4,5-trisubstituted oxazoles” (Gruppo Lepetit S.p.A., priority 1975, dated 1978).

Data set [1] has as its system carrageenin induced edema. Put plainly: carrageenin-induced edema test, oral administration. The class given is in vivo, rats. The note with it: mice. The method, then: The compounds of the invention have antiinflammatory activity. […] The compounds are orally administered at dosages varying from 10 to 200 mg/kg. and the observed percent decreases of the induced edema are between about 30 and about 65. The acute toxicity of these compounds is ordinarily very low, almost always being higher than 1000 mg/kg. Moreover the compounds of this invention are much less ulcerogenic than other known and wisely used anti-inflammatories, such as, for example, phenylbutazone.
For orientation: Carrageenan injected into the paw causes an acute inflammation.

A short description of data set [2]: acute toxicity, LD50 p.o. mice. The note with it: mouse, in vivo, po.

As for `Cc1nc(-c2ccccc2)oc1C(N)=O` [Example 1, 5-Carbamoyl-4-methyl-2-phenyloxazole], the figures for the “Percent inhibition of carrageenin induced edema” value in data set [1] (dose 50 mg/kg p.o.), in data set [1] (dose 100 mg/kg p.o.) and in data set [1] (dose 200 mg/kg p.o.) were 30%, 43% and 64%, respectively. Besides, the LD50 (commonly the dose expected to kill half of the subjects tested) in data set [2] was over 1000 mg/kg.

As for `Cc1oc(-c2ccccc2)nc1C(N)=O` [Example 2, 4-Carbamoyl-5-methyl-2-phenyloxazole], the “Percent inhibition of carrageenin induced edema” value in data set [1] (dose 50 mg/kg p.o.) is reported as 29%; in data set [1] (dose 100 mg/kg p.o.) it was 42%; in data set [1] (dose 200 mg/kg p.o.) it was 53%. The same compound showed an LD50 in data set [2] of over 1000 mg/kg.
